According to patent US12077503B2, “Substituted cyclic amides and their use as herbicides” (FMC CORPORATION, priority 2015, dated 2024):
Where two headings read alike, the source gives them in different places.

Assays:
Test in all cases: Test A postemergence
Type in all cases: in vivo
[1] = system: Galium (catchweed bedstraw, Galium aparine); settings: Galium, post-emergence, 240 h; for pest or weed control at 125 g/ha: 125 g ai/ha, read-out: Galium plant response rating (0 to 100 scale); for pest or weed control at 500 g/ha: 500 g ai/ha
Summary of the method: (§1)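 Visual injury scores from 0, no effect, to 100, complete control, were assigned versus untreated controls roughly 10 d after treatment in the greenhouse. Test chemicals, formulated with surfactant in a non-phytotoxic solvent, were applied to planted seeds as a preemergence soil spray or postemergence to one- to two-leaf plants 2 to 10 cm tall, in loam–sand soil.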

corn (Zea mays) = settings: Zea mays, post-emergence, 240 h; for plant injury at 125 g/ha: 125 g ai/ha, read-out: Corn plant response rating (0 to 100 scale); for plant injury at 500 g/ha / Corn plant response rating (crop injury, 0 = no effect, 100 = complete kill) at 500 g/ha: 500 g ai/ha; for plant injury at 500 g/ha: 0 to 100 scale, 0 is no effect, 100 is complete control, read-out: Corn plant response rating; for Corn plant response rating (crop injury, 0 = no effect, 100 = complete kill) at 500 g/ha: visual injury, 0 to 100 scale (0 no effect, 100 complete control), approx. 10 d
Summary of the method: as §1

[2] = system: pigweed (Amaranthus retroflexus); settings: Amaranthus retroflexus, post-emergence, 240 h; for pest or weed control at 125 g/ha: 125 g ai/ha, read-out: Pigweed plant response rating (0 to 100 scale); for pest or weed control at 500 g/ha: 500 g ai/ha
Summary of the method: as §1

[3] = system: wheat (Triticum aestivum); settings: Triticum aestivum, post-emergence, 240 h; for plant injury at 125 g/ha: 125 g ai/ha, read-out: Wheat plant response rating (0 to 100 scale); for plant injury at 500 g/ha: 500 g ai/ha
Summary of the method: as §1

[4] = system: ryegrass, Italian (Italian ryegrass, Lolium multiflorum); settings: Lolium multiflorum, post-emergence, 240 h; for pest or weed control at 125 g/ha: 125 g ai/ha, read-out: Ryegrass, Italian plant response rating (0 to 100 scale); for pest or weed control at 500 g/ha: 500 g ai/ha
Summary of the method: as §1

[5] = postemergence, visual injury vs untreated controls after approx. 10 d, 0 = no effect, 100 = complete control
[6] = postemergence, 0 to 100 scale, 0 is no effect, 100 is complete control, read-out: Galium plant response rating
[7] = postemergence, 0 to 100 scale, 0 is no effect, 100 is complete control, read-out: Pigweed plant response rating
[8] = postemergence, 0 to 100 scale, 0 is no effect, 100 is complete control, read-out: Wheat plant response rating
[9] = postemergence, 0 to 100 scale, 0 is no effect, 100 is complete control, read-out: Ryegrass, Italian plant response rating
[10] = Postemergence, visual injury, 0 to 100 scale (0 no effect, 100 complete control), approx. 10 d, read-out: Plant response rating, Galium
[11] = Postemergence, visual injury, 0 to 100 scale (0 no effect, 100 complete control), approx. 10 d, read-out: Plant response rating, Pigweed
[12] = Postemergence, visual injury, 0 to 100 scale (0 no effect, 100 complete control), approx. 10 d, read-out: Plant response rating, Wheat
[13] = Postemergence, visual injury, 0 to 100 scale (0 no effect, 100 complete control), approx. 10 d, read-out: Plant response rating, Ryegrass, Italian
[14] = Postemergence, visual rating about 10 d after treatment

Row | Compound | pest or weed control at 125 g/ha [1, 5] [%] | pest or weed control at 500 g/ha [1, 6] [%] | plant injury at 125 g/ha (corn (Zea mays); [5]) [%] | plant injury at 500 g/ha (corn (Zea mays); postemergence) [%] | pest or weed control at 125 g/ha [2, 5] [%] | pest or weed control at 500 g/ha [2, 7] [%] | plant injury at 125 g/ha [3, 5] [%] | plant injury at 500 g/ha [3, 8] [%] | pest or weed control at 125 g/ha [4, 5] [%] | pest or weed control at 500 g/ha [4, 9] [%] | pest or weed control at 500 g/ha [1, 10] [%] | Corn plant response rating (crop injury, 0 = no effect, 100 = complete kill) at 500 g/ha (corn (Zea mays); Postemergence) [%] | pest or weed control at 500 g/ha [2, 11] [%] | plant injury at 500 g/ha [3, 12] [%] | pest or weed control at 500 g/ha [4, 13] [%] | pest or weed control at 125 g/ha [1, 14] [%] | plant injury at 125 g/ha (corn (Zea mays); [14]) [%] | pest or weed control at 125 g/ha [2, 14] [%] | plant injury at 125 g/ha [3, 14] [%] | pest or weed control at 125 g/ha [4, 14] [%]
1 | CN1CC[C@H](c2ccc(C(F)(F)F)cc2)[C@@H](C(=O)Nc2cccc(Cl)c2F)C1=O [Compound 1228] | 20 | 60 | 20 | 70 | 20 | 50 | 0 | 30 | 0 | 30 |  |  |  |  |  |  |  |  |  | 
2 | CN1C[C@H](c2ccc(C#N)cc2)[C@@H](C(=O)Nc2ccc(F)c(F)c2F)C1=O [Compound 1229] | 40 | 50 | 0 | 0 | 40 | 60 | 0 | 50 | 0 | 40 |  |  |  |  |  |  |  |  |  | 
3 | CSc1ccccc1NC(=O)[C@H]1C(=O)N(C)C[C@@H]1c1ccc(C#N)cc1 [Compound 1230] | 20 | 60 | 0 | 0 | 30 | 60 | 0 | 0 | 0 | 0 |  |  |  |  |  |  |  |  |  | 
4 | Cc1cccc([C@H]2CN(C)C(=O)[C@@H]2C(=O)Nc2ccc(F)c(F)c2F)c1 [Compound 1231] | 50 | 70 | 70 | 80 | 0 | 50 | 50 |  | 40 | 50 |  |  |  |  |  |  |  |  |  | 
5 | Cc1cccc([C@H]2CN(C)C(=O)[C@@H]2C(=O)Nc2cccc(F)c2C)c1 [Compound 1233] | 20 | 60 | 70 | 80 | 0 | 20 | 40 |  | 40 | 50 |  |  |  |  |  |  |  |  |  | 
6 | O=C1NC[C@H](c2ccc(C(F)(F)F)cc2)C1C(=O)Nc1c(F)cccc1CO (some centres unmarked) [Compound 1243] | 0 | 0 | 0 | 0 | 0 | 0 | 0 |  | 0 | 0 |  |  |  |  |  |  |  |  |  | 
7 | Cc1cc([C@H]2CNC(=O)[C@@H]2C(=O)Nc2ccccc2S(C)(=O)=O)ccc1Cl [Compound 1246] | 50 |  | 0 |  | 0 |  | 0 |  | 0 |  | 60 | 40 | 20 | 40 | 0 |  |  |  |  | 
8 | CN1C[C@H](c2cccc(C(F)(F)F)c2)[C@@H](C(=O)Nc2ccc(F)cc2C(F)(F)F)C1=O [Compound 1250] | 40 |  | 40 |  | 0 |  | 40 |  | 20 |  | 60 | 70 | 30 | 70 | 50 |  |  |  |  | 
9 | CN1C[C@H](c2ccc(C(F)(F)F)cc2)[C@@H](C(=O)Nc2ccccc2)C1=O [Compound 1253] | 50 |  | 0 |  | 0 |  |  |  | 40 |  | 60 | 70 | 30 | 50 | 60 |  |  |  |  | 
10 | Cc1nc([C@H]2CN(C)C(=O)[C@@H]2C(=O)Nc2ccccc2F)cs1 [Compound 1280] |  |  |  |  |  |  |  |  |  |  | 0 | 0 | 0 | 0 | 0 | 0 | 0 | 0 | 0 | 0
11 | COc1cc([C@H]2CN(C)C(=O)[C@@H]2C(=O)Nc2ccccc2S(C)(=O)=O)ccc1F [Compound 1302] |  |  |  |  |  |  |  |  |  |  | 30 | 0 | 0 | 0 | 20 | 0 | 0 | 0 | 0 | 0
12 | CSc1ccccc1NC(=O)[C@H]1C(=O)NC[C@@H]1c1cc(C)cc(F)c1 [Compound 1306] |  |  |  |  |  |  |  |  |  |  | 40 | 0 | 0 | 0 | 0 | 20 | 0 | 0 | 0 | 0
13 | Cc1cc(F)cc([C@H]2CNC(=O)[C@@H]2C(=O)Nc2ccccc2S(C)(=O)=O)c1 [Compound 1307] |  |  |  |  |  |  |  |  |  |  | 40 | 0 | 0 | 0 | 0 | 30 | 0 | 0 | 0 | 0
14 | Cc1cc(F)cc([C@H]2CNC(=O)[C@@H]2C(=O)Nc2cccc(F)c2C)c1 [Compound 1308] |  |  |  |  |  |  |  |  |  |  | 50 | 80 | 0 | 40 | 0 | 30 | 20 | 0 | 20 | 0
15 | Cc1cc(F)cc([C@H]2CNC(=O)[C@@H]2C(=O)Nc2cccc(F)c2F)c1 [Compound 1309] |  |  |  |  |  |  |  |  |  |  | 50 | 20 | 0 | 20 | 20 | 30 | 0 | 0 | 20 | 0
